Columns and labels:
COX-2 [1] = assay: LPS-induced COX-2 protein expression in RAW264.7 cells (immunoblot); assay type: cell-based, mouse; details: LPS 8 h
Protocol: (§1) Mouse RAW264.7 macrophages were from the American Type Culture Collection and cultured in DMEM containing 10% FBS. […] The duration of LPS (100 ng/ml) treatment varied depending on the experiment.
(§2) Cellular protein were resolved by 5% to 20% SDS-PAGE and transferred to nitrocellulose membranes and blotted with specific antibodies as previously described (Lee, G. L., et al.).
(§3) After pretreating mouse macrophage RAW264.7 cells with different concentrations of 5-MTP for 30 min, cells were stimulated with LPS for 8 h. Cell lysates were immunoblotted with antibodies for COX-2 or β-actin. In addition, RAW264.7 cells were transfected with COX-2 promoter-luciferase plasmid. After 24 h transfection, the cells were incubated with LPS for 8 h. Luciferase activity was measured.

COX-2 [2] = assay: PMA-induced COX-2 expression in A549 cells (immunoblot); assay type: cell-based; details: for PMA-induced COX-2 protein expression: 30 min pretreatment, PMA 8 h
Protocol: as §2
After pretreating A549 cells with different concentrations of 5-MTP, 5-MTPE and NACT-5-MTP for 30 min, cells were stimulated with PMA for 8 h. Cell lysates were immunoblotted with antibodies for COX-2 or β-actin.

IL-6 = assay: LPS-induced IL-6 level in RAW264.7 culture supernatants (ELISA); assay type: cell-based, mouse; details: RAW264.7 cells; for LPS-induced IL-6 protein expression: LPS 8 h
Protocol: as §1
Moreover, RAW264.7 cells and IL-6 promoter-luciferase plasmid transfected RAW264.7 cells were pretreated with different concentrations of 5-MTP for 30 min, followed by LPS stimulation for 8 h. IL-6 promoter activity was measured by luciferase assay. IL-6 level in culture supernatants was measured by ELISA.
Furthermore, RAW264.7 cells were treated with different concentrations of 5-MTP or 5-MTPE for 24 h. Cell viability was determined by MTT assay. In another experiment, after pretreating RAW264.7 cells with different concentrations of 5-MTP or 5-MTPE for 30 min, cells were stimulated with LPS for 24 h. IL-6 level in culture supernatants was measured by ELISA.
(§4) Herein, after pretreating RAW264.7 cells with different concentrations of 5-MTP, 5-MTPE, COX-2 inhibitors (NSC398 or SC560) and NF-κB inhibitor JSH-23 for 30 min, cells were stimulated with LPS. In addition, RAW264.7 cells were also transfected with COX-2 promoter-luciferase plasmid. After 24 h transfection, the cells were incubated with LPS for 8 h. Luciferase activity as measured.

COX-2 promoter = assay: COX-2 promoter-luciferase assay in RAW264.7 cells; assay type: cell-based, mouse; details: LPS 8 h
Protocol: RAW264.7 macrophages were cotransfected with COX-2 promoter-luciferase, IL-6 promoter-luciferase constructs as previously described (Lee, G. L., et al.) or p5xNF-κB-luciferase (Stratagene) and pcDNA3.1-β-galactosidase plasmids using FuGENE 6 (Roche). After overnight transfection, the cells were incubated with or without LPS in the presence or absence of 5-MTP for 8 h. After treatment, cells were lysed, and luciferase activity was measured using an assay kit (Promega). β-galactosidase activity was used to normalize the data.
as §3, with “measured. The experiments were repeated 3 times with similar results. The results shown in FIGS. 3A-3B confirmed that 5-MTP blocked LPS-induced COX-2 protein expression and promoter activity in a concentration-dependent manner in RAW264.7 cells.” for “measured.”
as §4

T47D breast cancer cells = assay: Transwell cell migration assay, T47D; assay type: cell-based; details: 30 min pretreatment, PMA 4 h or 24 h
Protocol: (§5) Briefly, cells (10^4/well) were seeded on the upper chamber (6.5-mm insert, 8-μm polycarbonate membrane; Corning Inc.), which was placed in each well of a 24-well plate. The lower chamber was filled with 700 μL DMEM supplemented with 10% FBS. For assessment of in vitro invasion, cells were seeded onto the upper chamber insert coated with Matrigel (BD Biosciences) under the same conditions as the transwell migration assays. At the indicated time, nonmigrated cells that remained at the top surface of the insert were removed with a cotton swab. Cells that migrated to the lower membrane surface and cells that invaded through the matrigel gel to the underside of the membrane were fixed, stained with 0.1% crystal violet for 20 min, and counted under light microscopy. All of the assays were done in triplicate with excellent reproducibility.
(§6) Lung cancer A549 and breast cancers BT474 and T47D cells were pretreated with different concentrations of 5-MTP or 5-MTPE for 30 min, then stimulated with PMA for 4 h or 24 h. Cell migration was measured by the transwell migration assay.

A549 lung cancer cells = assay: Transwell cell migration assay, A549; assay type: cell-based; details: 30 min pretreatment, PMA 4 h or 24 h
Protocol: as §5, §6

[3] = test system: BT474 breast cancer cells; assay: Transwell cell migration assay, BT474; assay type: cell-based; details: 30 min pretreatment, PMA 4 h or 24 h
Protocol: as §5, §6

Molecule: COc1ccc2[nH]cc(CCN)c2c1 [5-methoxytryptamine, reference compound]
- LPS-induced COX-2 protein expression (COX-2 [1]): neither serotonin nor 5-methoxytryptamine or tryptophan exerted an effect
- PMA-induced COX-2 protein expression (COX-2 [2]): neither serotonin nor 5-methoxytryptamine or tryptophan exerted an effect
- LPS-induced IL-6 protein expression (IL-6): neither serotonin nor 5-methoxytryptamine or tryptophan exerted an effect

Molecule: Cc1ccc(NCCCc2ccccc2)c(N)c1 [JSH-23, reference compound]
- LPS-induced COX-2 promoter activity (luciferase) (COX-2 promoter): dose-dependently blocked
- LPS-induced IL-6 level in culture supernatants (IL-6; 30 min pretreatment, LPS 24 h): dose-dependently blocked

Molecule: NCCc1c[nH]c2ccc(O)cc12 [Serotonin, reference compound]
- LPS-induced COX-2 protein expression (COX-2 [1]): neither serotonin nor 5-methoxytryptamine or tryptophan exerted an effect
- PMA-induced COX-2 protein expression (COX-2 [2]): neither serotonin nor 5-methoxytryptamine or tryptophan exerted an effect
- LPS-induced IL-6 protein expression (IL-6): neither serotonin nor 5-methoxytryptamine or tryptophan exerted an effect

Molecule: N[C@@H](Cc1c[nH]c2ccccc12)C(=O)O [Tryptophan]
- LPS-induced COX-2 protein expression (COX-2 [1]): neither serotonin nor 5-methoxytryptamine or tryptophan exerted an effect
- PMA-induced COX-2 protein expression (COX-2 [2]): neither serotonin nor 5-methoxytryptamine or tryptophan exerted an effect
- LPS-induced IL-6 protein expression (IL-6): neither serotonin nor 5-methoxytryptamine or tryptophan exerted an effect

Molecule: N-acetyl-5-MTP [NACT-5MTP]
- PMA-induced T47D cell migration (T47D breast cancer cells): abrogated
- PMA-induced A549 cell migration (A549 lung cancer cells): abrogated
- PMA-induced BT474 cell migration [3]: abrogated
- PMA-induced COX-2 protein expression (COX-2 [2]): dose-dependently blocked
- COX-2 suppressive activity compared with 5-MTP (COX-2 [2]; PMA): potent than that of 5-MTP

Source: US10577322B2, “5-methoxytryptophan and its derivatives and uses thereof” (National Health Research Institutes, priority 2015, dated 2020)
